The results in this text go back to article PMC7645381, “Development and application of a high-throughput screening assay for identification of small molecule inhibitors of the P. falciparum reticulocyte binding-like homologue 5 protein” (International Journal for Parasitology: Drugs and Drug …, 2020).

Like-named read-outs stand apart in the source and are kept apart here.

Assay [1] has as its system P. falciparum 3D7 parasites. The experiment in a line: P. falciparum parasite viability assay (LDH). The assay is classed as cell-based. On the procedure:
A modified version of the lactate dehydrogenase (LDH) assay described by [Gamo et al. […] Compounds were pre-dispensed in 384-well plates, RPMI/Albumax growth media was added, and P. falciparum inoculated. Plates were incubated for 72 h and then frozen at −80 °C overnight. LDH activity was quantified with the modified cofactor 3-acetylpyridine adenine dinucleotide (APAD) (Sigma Aldrich) by measuring absorbance of the tetrazolium indicator nitro blue tetrazolium (NBT) (Sigma Aldrich) at 650 nm. Parasite conditions: […] Growth inhibition assay: […] Intermediate compound dilution plates were prepared by dispensing 5 μL from each well of the compound master plate into 11.5 μL of RPMI/Albumax growth media. Duplicate assay plates (384-well) were then prepared by dispensing 0.5 μL of compound from the intermediate dilution plates into 9.5 μL of RPMI/Albumax growth media. […] The final DMSO concentration was 0.1% (to limit toxicity to parasites). […] Evaluation of parasite growth measuring lactate dehydrogenase (LDH) activity: After 72 h of incubation, plates were frozen at −80 °C overnight and then thawed at room temperature for at least 4 h. […] Plates were shaken to ensure mixing and absorbance at 650 nm was monitored using a PerkinElmer Envision plate reader after 30 min of incubation at room temperature. Data were normalised to percent growth inhibition using positive and negative controls and analyzed using TIBCO Spotfire software.

The test system of assay [2] is D10-PfPHG parasites. As to the kind of experiment: Schizont rupture assay. The format is cell-based, P. falciparum. As for the experimental part: D10-PfPHG parasites ([Wilson et al., 2010]) were cultured in human O^+ erythrocytes in RPMI-HEPES culture medium (pH 7.4, 50 μg/mL hypoxanthine, 25 mM NaHCO3, 20 μg/mL gentamicin, 0.5% Albumax II (Thermo Fisher Scientific) according to established protocols ([Trager and Jensen, 1976]) and maintained in an atmosphere of 1% O2, 4% CO2 and 95% N2. For assessment of merozoite invasion after schizont rupture, parasites were tightly synchronised to a 4 h window of invasion using heparin ([Boyle et al., 2010]; [Wilson et al., 2015]) and then grown for a further 42 h. Drug treatments were setup at 2–3% parasitaemia and 1% haematocrit in 50 μL volumes with a 1 in 10 dilution of drug added when parasites were 44–48 h post invasion. After 6 h of drug treatment and immediately after invasion was expected to finish, the assays were treated with 5 μg/mL ethidium bromide (EtBr, Bio-Rad) for 5 min prior to flow cytometry assessment of parasitaemia using a Becton Dickinson Accuri. Gating of newly invaded rings, free merozoites and unruptured late stages was achieved as per published methods ([Wilson et al., 2013]).
To determine if the modest activity of pranlukast and analogues in the parasite viability assay was a consequence of invasion inhibition, rather than inhibition at another stage of blood stage parasite development, we performed an assay that measures the effect of compound treatment on P. falciparum D10 asexual stage transition between late schizont and ring stages ([Wilson et al., 2013]). In this assay, highly synchronised mature schizont-stage parasites were incubated with pranlukast and selected analogues at 50 and 100 μM and the transition to newly invaded ring stage parasites was quantified by flow cytometry. In parallel, the rate of schizont rupture and merozoite release was quantified to assess whether any reduction in newly invaded ring stages was due to a block affecting merozoite release or development. […] Neither DMSO (at the maximal concentration used for the drug treatments of 0.1%) or a non-invasion inhibitory mAb control caused a reduction in merozoite invasion. […] […].

Assay [3] relates to HepG2 cells. The experiment in a line: HepG2 growth inhibition assay. The assay is classed as cell-based. The conditions noted are these: Homo sapiens, 10-point dilution series, 48 h, Cell Titre-Glo. As for the experimental part:
HepG2 cells were cultured in Dulbeccos modified eagle's medium (DMEM) supplemented with 10% fetal calf serum (FCS), in a humidified incubator at 37 °C and 5% CO2. Ten-point compound titration assays were performed by treating cells (1 × 10^3) for 48 h in 384 well tissue culture treated plates (Greiner). Cytotoxicity was determined using Cell Titer Glo (Promega) and calculated as a percentage using DMSO as a positive growth control and 10 μM Bortezomib as a negative growth control. EC50 values were calculated using a 4-parameter log dose, non-linear regression analysis, with sigmoidal dose response (variable slope) curve fit using Graph Pad Prism (version 6.05). 0 and 100 constraint parameters were used for curve fitting. […]

For assay [4], the target named is P. falciparum Rh5 (Rh5 – basigin interaction) (Plasmodium falciparum, UniProt Q8IFM5). The experiment in a line: biochemical. The format is binding. The conditions noted are these: for Rh5 inhibitory activity in the AlphaScreen assay: highest concentration tested 50 μM.
Assay [5] has as its system P. falciparum D10. The experiment in a line: P. falciparum D10 growth inhibition by flow cytometry. The assay is classed as cell-based. Conditions: for EC50: Plasmodium falciparum, D10, growth inhibition by flow cytometry, 12-point dilution series, 72 h. On the procedure: Pranlukast and selected analogues were then evaluated in a P. falciparum parasite viability assay. For this assay, we followed the procedure described by [Gamo et al. (2010)], that used lactate dehydrogenase (LDH) as a readout for parasite viability. In this assay, 3D7 parasites were incubated over 72 h in the presence of increasing concentrations of compounds. […]. For a comparison, selected compounds were incubated in the presence of P. falciparum D10 parasites for 72 h (Table 1, Fig. S14) and growth inhibition measured by flow cytometry. […].
Background: A flow cytometer gives signals particle by particle.

Assay [6] can be described thus: AlphaScreen TruHits counterscreen assay. Conditions: TruHits counterscreen, single point, 10 μM in duplicate. On the procedure: The counterscreen assay was conducted using AlphaScreen TruHits kit (PerkinElmer). Biotinylated acceptor beads and Streptavidin donor beads were both diluted in assay buffer (final concentration of 10 μg/mL). Using the Combi-multidrop, 10 μL of each bead solution (20 μg/mL prepared in assay buffer) was added to every well of the assay plate under subdued lighting. Compound addition and assay readout was performed as described above.

[7] abbreviates: Plasmodium falciparum, 3D7, 72 h, LDH activity, 10-point dilution series, 72 h, read-out: P. falciparum 3D7 EC50.
Setting [8] is: 50 and 100 μM, 6 h, flow cytometry.
[9] abbreviates: LDH activity, 10-point dilution series, 72 h, read-out: P. falciparum 3D7 EC50.

Chain of P. falciparum Rh5 (Rh5 – basigin interaction) (Q8IFM5 24-526): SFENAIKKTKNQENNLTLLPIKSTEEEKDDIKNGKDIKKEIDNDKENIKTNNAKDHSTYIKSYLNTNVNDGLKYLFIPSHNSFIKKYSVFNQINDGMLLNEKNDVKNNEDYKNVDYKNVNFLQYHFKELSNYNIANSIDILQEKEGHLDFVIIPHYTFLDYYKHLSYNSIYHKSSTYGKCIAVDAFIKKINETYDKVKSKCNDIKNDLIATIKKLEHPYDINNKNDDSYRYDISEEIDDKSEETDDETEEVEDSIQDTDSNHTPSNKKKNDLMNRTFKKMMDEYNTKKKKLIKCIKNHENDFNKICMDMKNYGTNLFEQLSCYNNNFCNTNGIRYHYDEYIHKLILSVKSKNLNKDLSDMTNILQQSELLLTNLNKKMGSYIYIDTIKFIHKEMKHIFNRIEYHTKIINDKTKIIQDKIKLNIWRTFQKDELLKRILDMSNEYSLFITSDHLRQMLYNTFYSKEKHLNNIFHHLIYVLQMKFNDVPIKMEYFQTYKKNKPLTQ

The term EC50 denotes the concentration giving half of the maximal effect. Turning to `C[C@H]1CCC/C=C/[C@@H]2C[C@H](O)C[C@H]2[C@H](O)/C=C/C(=O)O1` [Brefeldin A, reference compound], in assay [1] (setting [7]), the EC50 was determined as 3.5 µM.

As for `CCN(CC)CCCC(C)Nc1ccnc2cc(Cl)ccc12` (stereo not shown) [Chloroquine, reference compound], the EC50 in assay [1] (Plasmodium falciparum, 3D7, 72 h, read-out: P. falciparum 3D7 EC50, control, LDH activity, 72 h) is 0.018 µM.

In general, IC50 refers to the concentration at which inhibition is half-maximal. `CCOC(=O)c1cc(=O)c2cccc(NC(=O)c3ccc(OCCCc4ccccc4)cc3)c2o1` [Compound 13, Ethyl 4-oxo-8-(4-(3-phenylpropoxy)benzamido)-4H-chromene-2-carboxylate]: the EC50 in assay [1] (setting [7]), in assay [3] and in assay [5] was > 50 µM in each case. For the same compound, the free merozoite numbers entry in assay [2] (setting [8]) is listed as “no reduction in free merozoite numbers”. The “merozoite invasion (newly invaded early ring stages)” value (“merozoite invasion” for short) in assay [2] (setting [8]) was “minimal inhibition of merozoite invasion”. The IC50 in assay [4] was > 50 µM.

Consider `O=C(Nc1cccc2c(=O)cc(C(=O)O)oc12)c1ccc(OCCc2ccccc2)cc1` [Compound 16, 4-Oxo-8-(4-phenethoxybenzamido)-4H-chromene-2-carboxylic acid], for which the EC50 in assay [1] (setting [9]) was 37 µM; in assay [1] (setting [7]), 40 µM; in assay [3], > 50 µM; in assay [5], 6.7 µM. Besides, in assay [2] (setting [8]), the “merozoite invasion” value was “substantial reduction in the numbers of merozoites that had invaded and formed early ring stages”. In addition, in assay [2] (lowest concentration tested (50 μM)), the free merozoite numbers result is reported as “minimal loss in free merozoite numbers”. The compound also showed an IC50 in assay [4] of 40 µM. Besides, the “fold more active against the D10 strain than the 3D7 strain” value in assay [5] (EC50 D10 vs 3D7) is on record as 5 fold.

Consider `O=C(Nc1cccc2c(=O)cc(C(=O)O)oc12)c1ccc(OCCCc2ccccc2)cc1` [Compound 17, 4-Oxo-8-(4-(3-phenylpropoxy)benzamido)-4H-chromene-2-carboxylic acid], for which the concentration for a half-maximal effect (EC50) in assay [1] (setting [7]) was 15 µM; in assay [3], > 50 µM; in assay [5] it was 19 µM. In assay [2] (setting [8]), the free merozoite numbers entry is “no reduction in free merozoite numbers”. The “merozoite invasion” value in assay [2] (setting [8]) was “minimal inhibition of merozoite invasion”. Half-maximal inhibition in assay [4] (IC50) required 24 µM.

On to `COc1ccc(C(=O)Nc2cccc3c(=O)cc(C(=O)O)oc23)cc1` [Compound 21, 8-(4-Methoxybenzamido)-4-oxo-4H-chromene-2-carboxylic acid], for which the EC50 in assay [1] (setting [7]) was > 50 µM. For the same compound, the EC50 in assay [3] was > 50 µM. Also, in assay [4], the IC50 is > 50 µM and the “Rh5 inhibitory activity in the AlphaScreen assay” value (from here on “Rh5 inhibitory activity”) was “No activity”.

Take `COc1ccc(C(=O)Nc2cccc3c(=O)cc(-c4nn[nH]n4)oc23)cc1` [Compound 24, 4-Methoxy-N-(4-oxo-2-(2H-tetrazol-5-yl)-4H-chromen-8-yl)benzamide]: the figures for the EC50 in assay [1] (setting [7]) and in assay [3] were 25 µM and > 50 µM, respectively. Further, the IC50 in assay [4] was > 50 µM.

Turning to `O=C(Nc1cccc2c(=O)cc(-c3nn[nH]n3)oc12)c1ccc(OCCCc2ccccc2)cc1` [Compound 25, N-(4-Oxo-2-(2H-tetrazol-5-yl)-4H-chromen-8-yl)-4-(3-phenylpropoxy)benzamide], the results for the EC50 in assay [1] (setting [9]), in assay [1] (setting [7]) and in assay [3] were 7.3 µM, 7 µM and > 50 µM, respectively. In assay [4], this compound returned an IC50 of 20 µM.

Turning to `CCCc1c(OCC(O)COc2ccc3c(=O)cc(C(=O)O)oc3c2CCC)ccc(C(C)=O)c1O` (stereo not shown) [FPL 55712, reference compound], the EC50 was > 50 µM in assay [1] (Plasmodium falciparum, 3D7, 72 h, read-out: P. falciparum 3D7 EC50) and > 50 µM in assay [3].

Take `O=C(O)c1ccccc1Nc1cccc(OCc2ccc3ccccc3n2)c1` [SR2540, reference compound]: in assay [2] (setting [8]), the free merozoite numbers entry was “similarly reduced numbers of free merozoites”; the “merozoite invasion” value was “reduction in numbers of merozoites that had invaded and formed early ring stages”. For the same compound, in assay [2] (at the concentrations tested (50 and 100 μM)), the “increase in unruptured schizonts” value is listed as > 40%. Further, in assay [3], the EC50 was > 50 µM. Moreover, the IC50 in assay [4] is > 50 µM. Moreover, the EC50 in assay [5] turned out to be 6.1 µM.

Consider `Oc1c(Cl)cc(Cl)c(Cl)c1Cc1c(O)c(Cl)cc(Cl)c1Cl` [WEHI-0104268, Hexachlorophene, reference compound], for which the “% Inhibition Counter” value in assay [6] is 28.8475%.

The inhibition is the percentage by which the read-out fell short of the control. For the compound `O.c1cnc2c(c1)ccc1cccnc12` [WEHI-1215482, 1,10-Phenanthroline monohydrate, reference compound], the inhibition at 10 µM in assay [4] (read-out: % Inhibition Confirmation) came to 99.6%. For the same compound, the “% Inhibition Counter” value in assay [6] was 2.663%.

Turning to `O=C([O-])c1ccccc1-c1c2cc(Br)c(=O)cc-2oc2[c]([Hg+])c([O-])c(Br)cc12.[Na+].[Na+].[OH-]` [WEHI-1216497, Merbromin, reference compound], the “% Inhibition Confirmation” value in assay [4] (confirmation, single point, 10 μM in duplicate) came to 100.385%. Further, the “% Inhibition Pilot” value in assay [4] (primary screen, 20 μM) amounted to 100.87%. Further, the “% Inhibition Counter” value in assay [6] came to 29.2235%.

Consider `CCC(CC)(CC(=O)Nc1cccc(/C=C/c2nc(C3CCC3)cs2)c1)C(=O)O` [cinalukast, reference compound], for which, in assay [2] (setting [8]), the free merozoite numbers entry is reported as “similarly reduced numbers of free merozoites”; the “merozoite invasion” value was “reduction in numbers of merozoites that had invaded and formed early ring stages”. Besides, in assay [3], the EC50 was > 50 µM. Further, in assay [4], the IC50 was > 50 µM and the “Rh5 inhibitory activity” value is listed as “did not show Rh5 inhibitory activity”. This compound also yielded an EC50 in assay [5] of 32 µM.

Take `COc1cc(C(=O)NS(=O)(=O)c2ccccc2C)ccc1Cc1cn(C)c2ccc(NC(=O)OC3CCCC3)cc12` [zafirlukast, reference compound]: the EC50 is 5.9 µM in assay [1] (setting [9]), 6 µM in assay [1] (setting [7]) and > 50 µM in assay [3]. In assay [4], this compound registered an IC50 of 17 µM. Also, the “Rh5 inhibitory activity” value in assay [4] is on record as “possess inhibitory activity”.

Regarding “cDPCP [WEHI-1215640, reference compound]”, the “% Inhibition Counter” value in assay [6] came out at 2.1075%.

On to heparin, for which, in assay [2] (setting [8]), the free merozoite numbers entry is recorded as “not free merozoites” and the “merozoite invasion” value is “reduction in the number of early rings stage parasites”.
